± gives the standard deviation of the averaged measurements.
System: McpC ligand-binding domain (Salmonella Typhimurium SL1344)
Experiment: protein melting temperature (Tm) in presence of compound (degrees C); higher = more thermal stabilisation (possible ligand binding)
Conditions: compound stock concentration: 10-20 mM, 2 uL in 10 uL reaction

| Structure (SMILES) | protein melting temperature (Biolog plate: PM05) | protein melting temperature (Biolog plate: PM04A) | other results |
| --- | --- | --- | --- |
| Cc1ncc(CO)c(C=O)c1O [Pyridoxal] | 43.2 |  |  |
| Cc1ncc(CO)c(CN)c1O [Pyridoxamine] | 43.9 |  |  |
| Cc1ncc(CO)c(CO)c1O [Pyridoxine] | 43.8 |  |  |
| O=C(O)c1cc(C(=O)O)c2c(n1)C(=O)C(=O)c1cc(C(=O)O)[nH]c1-2 [Pyrrolo-Quinoline Quinone] | 43 |  |  |
| CC(=O)C(=O)O [Pyruvic acid] |  |  | protein melting temperature (Biolog plate: PM01): 44.9 |
| O=C(O)[C@]1(O)C[C@@H](O)[C@@H](O)[C@H](O)C1 [Quinic acid] |  |  | protein melting temperature (Biolog plate: PM02A): 44.2 |
| O=C(O)c1cccnc1C(=O)O [Quinolinic acid] | 43.8 |  |  |
| Cc1cc2nc3c(=O)[nH]c(=O)nc-3n(C[C@H](O)[C@H](O)[C@H](O)CO)c2cc1C [Riboflavin] | 43.6 |  |  |
| CSC[C@H](N)C(=O)O [S-Methyl-L-Cysteine] |  | 43.7 |  |
| O=C(O)CCCCCCCCC(=O)O [Sebacic acid] |  |  | protein melting temperature (Biolog plate: PM02A): 44.8 |
| OC[C@@]12OC[C@@H](O1)[C@@H](O)[C@@H](O)[C@@H]2O [Sedoheptulosan] |  |  | protein melting temperature (Biolog plate: PM02A): 44.3 |
| C/C=C/C=C/C(=O)O [Sorbic acid] |  |  | protein melting temperature (Biolog plate: PM02A): 44 |
| NCCCCNCCCN [Spermidine] | 41.1 |  |  |
| NCCCNCCCCNCCCN [Spermine] | 43.8 |  |  |
| OC[C@H]1O[C@H](OC[C@H]2O[C@H](OC[C@H]3O[C@H](O[C@]4(CO)O[C@H](CO)[C@@H](O)[C@@H]4O)[C@H](O)[C@@H](O)[C@@H]3O)[C@H](O)[C@@H](O)[C@H]2O)[C@H](O)[C@@H](O)[C@H]1O [Stachyose] |  |  | protein melting temperature (Biolog plate: PM02A): 44.5 |
| NC(=O)CCC(=O)O [Succinamic acid] |  |  | protein melting temperature (Biolog plate: PM02A): 43.6 |
| O=C(O)CCC(=O)O [Succinic acid] |  |  | protein melting temperature (Biolog plate: PM01): 44.5 |
| NCCS(=O)(=O)O [Taurine] |  | 44.2 |  |
| C[C@H](CCC(=O)NCCS(=O)(=O)O)[C@H]1CC[C@H]2[C@@H]3[C@H](O)C[C@@H]4C[C@H](O)CC[C@]4(C)[C@H]3C[C@H](O)[C@]12C [Taurocholic acid] |  | 44.2 |  |
| O=S1(=O)CCCC1 [Tetramethylene Sulfone] |  | 44.3 |  |
| O=S(=O)(O)SSS(=O)(=O)O [Tetrathionate] |  | 42.7 |  |

| Structure (SMILES) | protein melting temperature (Biolog plate: PM05) | protein melting temperature (Biolog plate: PM04A) | other results |
| --- | --- | --- | --- |
| Cc1ncc(C[n+]2csc(CCOP(=O)(O)OP(=O)(O)O)c2C)c(N)n1 [Thiamine Pyrophosphate] | 43.7 |  |  |
| OP(O)(O)=S [Thiophosphate] |  | 43.88 ± 0.26 |  |
| O=S(O)(O)=S [Thiosulfate] |  | 42.8 |  |
| NC(N)=S [Thiourea] |  | 44.6 |  |
| Cc1cn([C@H]2C[C@H](OP(=O)(O)O)[C@@H](CO)O2)c(=O)[nH]c1=O [Thymidine 3`-Monophosphate] |  | 43.6 |  |
| Cc1cn([C@H]2C[C@H](O)[C@@H](COP(=O)(O)O)O2)c(=O)[nH]c1=O [Thymidine 5`-Monophosphate] |  | 43.7 |  |
| Cc1cn([C@H]2C[C@H](O)[C@@H](CO)O2)c(=O)[nH]c1=O [Thymidine] | 44.7 |  | protein melting temperature (Biolog plate: PM01): 44.6; protein melting temperature (Biolog plate: PM03B): 45.1 |
| Cc1c[nH]c(=O)[nH]c1=O [Thymine] | 43 |  | protein melting temperature (Biolog plate: PM03B): 45.1 |
| O=C(O)CC(CC(=O)O)C(=O)O [Tricarballylic acid] |  |  | protein melting temperature (Biolog plate: PM01): 44.3 |
| CCOP(=O)(OCC)OCC [Triethyl Phosphate] |  | 44.9 |  |
| O=P1(O)OP(=O)(O)OP(=O)(O)O1 [Trimetaphosphate] |  | 44.7 |  |
| O=C(CO)[C@@H](O[C@H]1O[C@H](CO)[C@@H](O)[C@H](O)[C@H]1O)[C@H](O)[C@H](O)CO [Turanose] |  |  | protein melting temperature (Biolog plate: PM02A): 44.1 |
| CCCCCCCC/C=C\CCCCCCCC(=O)OCCOCC(OCCO)C1OCC(OCCO)C1OCCO (stereo not drawn) [Tween 80] | 43.9 |  | protein melting temperature (Biolog plate: PM01): 45.3 |
| NCCc1ccc(O)cc1 [Tyramine] |  |  | protein melting temperature (Biolog plate: PM01): 43.9; protein melting temperature (Biolog plate: PM03B): 44.8 |
| O=c1cc[nH]c(=O)[nH]1 [Uracil] | 42.7 |  | protein melting temperature (Biolog plate: PM03B): 45.7 |
| NC(N)=O [Urea] |  |  | protein melting temperature (Biolog plate: PM03B): 46.5 |
| Oc1nc(O)c2nc(O)[nH]c2n1 [Uric acid] |  |  | protein melting temperature (Biolog plate: PM03B): 44.4 |
| O=c1ccn([C@@H]2O[C@H](CO)[C@@H](O)[C@H]2OP(=O)(O)O)c(=O)[nH]1 [Uridine 2`-Monophosphate] |  | 43.8 |  |
| O=c1ccn([C@@H]2O[C@H](CO)[C@@H](OP(=O)(O)O)[C@H]2O)c(=O)[nH]1 [Uridine 3`-Monophosphate] |  | 43.5 |  |
| O=c1[nH]c(=O)c2nc[nH]c2[nH]1 [Xanthine] |  |  | protein melting temperature (Biolog plate: PM03B): 44.5 |
| OC[C@H]1O[C@@H](n2cnc3c(O)nc(O)nc32)[C@H](O)[C@@H]1O [Xanthosine] |  |  | protein melting temperature (Biolog plate: PM03B): 44.3 |

From the supplement of paper PMC7806825
